From patent US10131652B2, “Pyrimidinyloxy benzene derivatives as herbicides” (E. I. DU PONT DE NEMOURS AND COMPANY, priority 2014, dated 2018)

What was measured:
Test in all cases: Test D pre-/postemergence plant response
Format in all cases: in vivo
[1] = test system: pigweed (Amaranthus retroflexus)
Source text: (§1) Seeds of plant species selected from blackgrass (Alopecurus myosuroides), Italian ryegrass (Lolium multiflorum), winter wheat (Triticum aestivum), galium (catchweed bedstraw, Galium aparine), corn (Zea mays), large (Lg) crabgrass (Digitaria sanguinalis), giant foxtail (Setaria faberii), johnsongrass (Sorghum halepense), lambsquarters (Chenopodium album), morningglory (Ipomoea coccinea), yellow nutsedge (Cyperus esculentus), pigweed (Amaranthus retroflexus), ragweed (common ragweed, Ambrosia elatior), soybean (Glycine max), bamyardgrass (Echinochloa crus-galli), oilseed rape (Brassica napus), waterhemp (common waterhemp, Amaranthus rudis), and velvetleaf (Abutilon theophrasti) were planted into a blend of loam soil and sand and treated preemergence with test chemicals formulated in a non-phytotoxic solvent mixture which included a surfactant. At the same time, plants selected from these crop and weed species and also kochia (Kochia scoparia), wild oat (Avena fatua), and chickweed (common chickweed, Stellaria media) were planted in pots containing Redi-Earth® planting medium (Scotts Company, 14111 Scottslawn Road, Marysville, Ohio 43041) comprising spaghnum peat moss, vermiculite, wetting agent and starter nutrients and treated with postemergence applications of test chemicals formulated in the same manner. Plants ranged in height from 2 to 18 cm (1- to 4-leaf stage) for postemergence treatments. Treated plants and controls were maintained in a greenhouse for 13 to 15 days, after which time all species were compared to controls and visually evaluated. Plant response ratings, summarized in Table D, are based on a scale of 0 to 100 where 0 is no effect and 100 is complete control. A dash (-) response means no test result.

[2] = test system: oilseed rape (Brassica napus)
Source text: as §1

[3] = test system: yellow nutsedge (Cyperus esculentus)
Source text: as §1

[4] = test system: large (Lg) crabgrass (Digitaria sanguinalis)
Source text: as §1

[5] = test system: johnsongrass (Sorghum halepense)
Source text: as §1

[6] = test system: galium (catchweed bedstraw, Galium aparine)
Source text: as §1

[7] = test system: morningglory (Ipomoea coccinea)
Source text: as §1

[8] = test system: barnyardgrass (Echinochloa crus-galli)
Source text: as §1

[9] = test system: Italian ryegrass (Lolium multiflorum)
Source text: as §1

soybean (Glycine max) = test system: soybean (Glycine max)
Source text: as §1

[10] = test system: ragweed (common ragweed, Ambrosia elatior)
Source text: as §1

[11] = test system: winter wheat (Triticum aestivum)
Source text: as §1

[12] = test system: waterhemp (common waterhemp, Amaranthus rudis)
Source text: as §1

[13] = test system: giant foxtail (Setaria faberii)
Source text: as §1

[14] = test system: velvetleaf (Abutilon theophrasti)
Source text: as §1

[15] = test system: blackgrass (Alopecurus myosuroides)
Source text: as §1

[16] = test system: lambsquarters (Chenopodium album)
Source text: as §1

corn (Zea mays) = test system: corn (Zea mays)
Source text: as §1

[17] = Postemergence, 16 g ai/ha, scale 0 to 100 (0 no effect, 100 complete control)
[18] = Postemergence, 31 g ai/ha, scale 0 to 100 (0 no effect, 100 complete control)
[19] = Postemergence, 62 g ai/ha, scale 0 to 100, 0 no effect, 100 complete control
[20] = Postemergence, 125 g ai/ha, scale 0 to 100, 0 no effect, 100 complete control
[21] = Preemergence, 16 g ai/ha, scale 0 to 100 (0 no effect, 100 complete control)
[22] = Preemergence, 31 g ai/ha, scale 0 to 100 (0 no effect, 100 complete control)
[23] = Preemergence, 62 g ai/ha, scale 0 to 100 (0 no effect, 100 complete control)

## Cc1cc(-c2ccccc2Oc2ncc(Cl)cn2)no1 [Compound 60]
[1]; [17]
  Pigweed plant response rating: 20
[1]; [18]
  Pigweed plant response rating: 35
[1]; [19]
  Plant response rating, Pigweed: 55
[1]; [20]
  Plant response rating, Pigweed: 70
[1]; Preemergence, 125 g ai/ha
  Plant response rating (scale 0 to 100), Pigweed: 100
[1]; [21]
  Plant response rating, Pigweed: 75
[1]; [22]
  Plant response rating, Pigweed: 100
[1]; [23]
  Plant response rating, Pigweed: 100
[2]; [17]
  Oilseed Rape plant response rating: 60
[2]; [18]
  Oilseed Rape plant response rating: 50
[2]; [19]
  Plant response rating, Oilseed Rape: 65
[2]; [20]
  Plant response rating, Oilseed Rape: 90
[2]; Preemergence, 125 g ai/ha
  Plant response rating (scale 0 to 100), Oilseed Rape: 100
[2]; [21]
  Plant response rating, Oilseed Rape: 80
[2]; [22]
  Plant response rating, Oilseed Rape: 98
[2]; [23]
  Plant response rating, Oilseed Rape: 90
[3]; [17]
  Nutsedge, Yellow plant response rating: 0
[3]; [18]
  Nutsedge, Yellow plant response rating: 0
[3]; [19]
  Plant response rating, Nutsedge, Yellow: 0
[3]; [20]
  Plant response rating, Nutsedge, Yellow: 5
[3]; Preemergence, 125 g ai/ha
  Plant response rating (scale 0 to 100), Nutsedge, Yellow: 5
[3]; [21]
  Plant response rating, Nutsedge, Yellow: 0
[3]; [22]
  Plant response rating, Nutsedge, Yellow: 0
[3]; [23]
  Plant response rating, Nutsedge, Yellow: 0
[4]; [17]
  Crabgrass, Large plant response rating: 5
[4]; [18]
  Crabgrass, Large plant response rating: 5
[4]; [19]
  Plant response rating, Crabgrass, Large: 5
[4]; [20]
  Plant response rating, Crabgrass, Large: 5
[4]; Preemergence, 125 g ai/ha
  Plant response rating (scale 0 to 100), Crabgrass, Large: 100
[4]; [21]
  Plant response rating, Crabgrass, Large: 5
[4]; [22]
  Plant response rating, Crabgrass, Large: 55
[4]; [23]
  Plant response rating, Crabgrass, Large: 100
[5]; [17]
  Johnsongrass plant response rating: 0
[5]; [18]
  Johnsongrass plant response rating: 0
[5]; [19]
  Plant response rating, Johnsongrass: 0
[5]; [20]
  Plant response rating, Johnsongrass: 5
[5]; Preemergence, 125 g ai/ha
  Plant response rating (scale 0 to 100), Johnsongrass: 45
[5]; [21]
  Plant response rating, Johnsongrass: 0
[5]; [22]
  Plant response rating, Johnsongrass: 0
[5]; [23]
  Plant response rating, Johnsongrass: 15
[6]; [17]
  Galium plant response rating: 30
[6]; [18]
  Galium plant response rating: 40
[6]; [19]
  Plant response rating, Galium: 50
[6]; [20]
  Plant response rating, Galium: 65
[6]; Preemergence, 125 g ai/ha
  Plant response rating (scale 0 to 100), Galium: 98
[6]; [21]
  Plant response rating, Galium: 98
[6]; [22]
  Plant response rating, Galium: 85
[6]; [23]
  Plant response rating, Galium: 100
[7]; [17]
  Morningglory plant response rating: 0
[7]; [18]
  Morningglory plant response rating: 40
[7]; [19]
  Plant response rating, Morningglory: 25
[7]; [20]
  Plant response rating, Morningglory: 40
[7]; Preemergence, 125 g ai/ha
  Plant response rating (scale 0 to 100), Morningglory: 20
[7]; [21]
  Plant response rating, Morningglory: 0
[7]; [22]
  Plant response rating, Morningglory: 0
[7]; [23]
  Plant response rating, Morningglory: 10
[8]; [17]
  Barnyardgrass plant response rating: 0
[8]; [18]
  Barnyardgrass plant response rating: 0
[8]; [19]
  Plant response rating, Barnyardgrass: 10
[8]; [20]
  Plant response rating, Barnyardgrass: 10
[8]; Preemergence, 62 g ai/ha
  Plant response rating (scale 0 to 100), Barnyardgrass: 30
[8]; Preemergence, 125 g ai/ha
  Plant response rating (scale 0 to 100), Barnyardgrass: 75
[8]; [21]
  Plant response rating, Barnyardgrass: 0
[8]; [22]
  Plant response rating, Barnyardgrass: 5
[9]; [17]
  Ryegrass, Italian plant response rating: 0
[9]; [18]
  Ryegrass, Italian plant response rating: 0
[9]; [19]
  Plant response rating, Ryegrass, Italian: 0
[9]; [20]
  Plant response rating, Ryegrass, Italian: 0
[9]; Preemergence, 125 g ai/ha
  Plant response rating (scale 0 to 100), Ryegrass, Italian: 30
[9]; [21]
  Plant response rating, Ryegrass, Italian: 0
[9]; [22]
  Plant response rating, Ryegrass, Italian: 0
[9]; [23]
  Plant response rating, Ryegrass, Italian: 0
Soybean (Glycine max); [17]
  Soybean plant response rating: 65
Soybean (Glycine max); [18]
  Soybean plant response rating: 65
Soybean (Glycine max); [19]
  Plant response rating, Soybean: 95
Soybean (Glycine max); [20]
  Plant response rating, Soybean: 95
Soybean (Glycine max); Preemergence, 125 g ai/ha
  Plant response rating (scale 0 to 100), Soybean: 95
Soybean (Glycine max); [21]
  Plant response rating, Soybean: 35
Soybean (Glycine max); [22]
  Plant response rating, Soybean: 55
Soybean (Glycine max); [23]
  Plant response rating, Soybean: 65
[10]; [17]
  Ragweed plant response rating: 15
[10]; [18]
  Ragweed plant response rating: 30
[10]; [19]
  Plant response rating, Ragweed: 40
[10]; [20]
  Plant response rating, Ragweed: 70
[10]; Preemergence, 125 g ai/ha
  Plant response rating (scale 0 to 100), Ragweed: 90
[10]; [21]
  Plant response rating, Ragweed: 15
[10]; [22]
  Plant response rating, Ragweed: 55
[10]; [23]
  Plant response rating, Ragweed: 65
[11]; [17]
  Wheat plant response rating: 0
[11]; [18]
  Wheat plant response rating: 5
[11]; [19]
  Plant response rating, Wheat: 5
[11]; [20]
  Plant response rating, Wheat: 20
[11]; Preemergence, 125 g ai/ha
  Plant response rating (scale 0 to 100), Wheat: 0
[11]; [21]
  Plant response rating, Wheat: 0
[11]; [22]
  Plant response rating, Wheat: 0
[11]; [23]
  Plant response rating, Wheat: 0
[12]; [17]
  Waterhemp plant response rating: 15
[12]; [18]
  Waterhemp plant response rating: 30
[12]; [19]
  Plant response rating, Waterhemp: 50
[12]; [20]
  Plant response rating, Waterhemp: 70
[12]; Preemergence, 125 g ai/ha
  Plant response rating (scale 0 to 100), Waterhemp: 100
[12]; [21]
  Plant response rating, Waterhemp: 80
[12]; [22]
  Plant response rating, Waterhemp: 100
[12]; [23]
  Plant response rating, Waterhemp: 100
[13]; [17]
  Foxtail, Giant plant response rating: 0
[13]; [18]
  Foxtail, Giant plant response rating: 5
[13]; [19]
  Plant response rating, Foxtail, Giant: 5
[13]; [20]
  Plant response rating, Foxtail, Giant: 10
[13]; Preemergence, 125 g ai/ha
  Plant response rating (scale 0 to 100), Foxtail, Giant: 95
[13]; [21]
  Plant response rating, Foxtail, Giant: 0
[13]; [22]
  Plant response rating, Foxtail, Giant: 5
[13]; [23]
  Plant response rating, Foxtail, Giant: 40
[14]; [17]
  Velvetleaf plant response rating: 40
[14]; [18]
  Velvetleaf plant response rating: 50
[14]; [19]
  Plant response rating, Velvetleaf: 65
[14]; [20]
  Plant response rating, Velvetleaf: 80
[14]; Preemergence, 125 g ai/ha
  Plant response rating (scale 0 to 100), Velvetleaf: 100
[14]; [21]
  Plant response rating, Velvetleaf: 60
[14]; [22]
  Plant response rating, Velvetleaf: 100
[14]; [23]
  Plant response rating, Velvetleaf: 100
[15]; [17]
  Blackgrass plant response rating: 0
[15]; [18]
  Blackgrass plant response rating: 0
[15]; [19]
  Plant response rating, Blackgrass: 5
[15]; [20]
  Plant response rating, Blackgrass: 20
[15]; Preemergence, 125 g ai/ha
  Plant response rating (scale 0 to 100), Blackgrass: 70
[15]; [21]
  Plant response rating, Blackgrass: 0
[15]; [22]
  Plant response rating, Blackgrass: 5
[15]; [23]
  Plant response rating, Blackgrass: 10
[16]; [17]
  Lambsquarters plant response rating: 20
[16]; [18]
  Lambsquarters plant response rating: 20
[16]; [19]
  Plant response rating, Lambsquarters: 55
[16]; [20]
  Plant response rating, Lambsquarters: 75
[16]; Preemergence, 125 g ai/ha
  Plant response rating (scale 0 to 100), Lambsquarters: 100
[16]; [21]
  Plant response rating, Lambsquarters: 10
[16]; [22]
  Plant response rating, Lambsquarters: 80
[16]; [23]
  Plant response rating, Lambsquarters: 85
Corn (Zea mays); [17]
  Corn plant response rating: 0
Corn (Zea mays); [18]
  Corn plant response rating: 0
Corn (Zea mays); [19]
  Plant response rating, Corn: 5
Corn (Zea mays); [20]
  Plant response rating, Corn: 5
Corn (Zea mays); Preemergence, 125 g ai/ha
  Plant response rating (scale 0 to 100), Corn: 5
Corn (Zea mays); [21]
  Plant response rating, Corn: 5
Corn (Zea mays); [22]
  Plant response rating, Corn: 0
Corn (Zea mays); [23]
  Plant response rating, Corn: 0
